Assay results published in patent US4483868A, “Gastro-protecting activity” (Roussel Uclaf, priority 1980, dated 1984).

Tests used:
[1] = Determination of acute toxicity (LD50, oral, mice); conditions: mouse, in vivo, oral administration
Experimental: (2) Determination of Acute Toxicity
The lethal dose, LD50, of the compounds of Examples 1-8 was evaluated in mice after oral administration.

[2] = system: ulcers in rats at the stomach level; experiment: Anti-ulcer activity, Shay method (pylorus ligature in rats); format: in vivo; conditions: oral, about 16 hours after treatment
Source text: (1) Determination of Anti-Ulcer Activity
The method used is described by SHAY et al. in Gastroenterology, 5, 43 (1945).
The Shay method consists of inducing ulcers in rats at the stomach level by ligature of the pylorus.
The animals are anesthetized with ether. A longitudinal incision is made about 1 cm below the sternum, the glandular part of the stomach and the duodenum are exposed, and a ligature is placed several mm below the pylorus. The muscular sheet is left as it is, and the skin is sutured with two clips.
As soon as possible afterwards, the animals receive the dispersive or the substance to be studied via the mouth in a volume of 0.5 ml/100 g and are kept without food or drink until sacrificed by carotid bleeding, which takes place about 16 hours after the treatment.
Before removing the stomach, a ligature is placed above the cardia.
The gastric liquid is collected in order to measure the pH.
The stomach is then opened along the major curvature, rinsed with physiological serum, and spread out on millimeter paper to be examined under a binocular magnifier.
The severity of the lesions is evaluated macroscopically and graded from 0 to 4 for each stomach.
The mean intensity of ulcerations is determined for each group of rats, and the protection is calculated by taking the ratio of the mean index of the treated group to the mean index of the control group.
The value of the gastric pH for the treated and control animals are likewise determined.

[3] = Rattus norvegicus, 0.8 mg/kg, read-out: Ulcerations % of protection with respect to controls
[4] = Rattus norvegicus, 4 mg/kg, read-out: Ulcerations % of protection with respect to controls
[5] = Rattus norvegicus, 20 mg/kg, read-out: Ulcerations % of protection with respect to controls
[6] = Rattus norvegicus, 0.4 mg/kg, read-out: Ulcerations % of protection with respect to controls
[7] = Rattus norvegicus, 2 mg/kg, read-out: Ulcerations % of protection with respect to controls
[8] = Rattus norvegicus, 10 mg/kg, read-out: Ulcerations % of protection with respect to controls
[9] = Rattus norvegicus, 50 mg/kg, read-out: Ulcerations % of protection with respect to controls

Row | SMILES | LD50 [1] | inhibition in vivo at 4 mg/kg [2, 4] | inhibition in vivo at 20 mg/kg [2, 5] | pH of gastric liquid, treated animals ([2]; 4 mg/kg) | pH of gastric liquid, treated animals ([2]; 20 mg/kg) | inhibition in vivo at 2 mg/kg [2, 7] | inhibition in vivo at 10 mg/kg [2, 8] | pH of gastric liquid, treated animals ([2]; 2 mg/kg) | pH of gastric liquid, treated animals ([2]; 10 mg/kg) | other results
1 | O=C(O)/C=C/C(=O)c1ccc(C(F)(F)F)cc1 [Example 6, (E) 4-(4-trifluoromethylphenyl)-4-oxo-2-butenoic acid] | ~600 mg/kg | 55% | 67% | 2.3 | 2.8 | – | – | – | – | inhibition in vivo at 0.8 mg/kg [2, 3]: 20%; inhibition in vivo at 100 mg/kg ([2]; Rattus norvegicus, 100 mg/kg, read-out: Ulcerations % of protection with respect to controls): 98%; pH of gastric liquid, treated animals ([2]; 0.8 mg/kg): 1.4; pH of gastric liquid, treated animals ([2]; 100 mg/kg): 6.3
2 | COc1ccc(C(=O)/C=C/C(=O)O)cc1OC [Example 1, (E) 4-(3,4-dimethoxyphenyl)-4-oxo-2-butenoic acid] | ~500 mg/kg | 83% | 100% | 2.6 | 4.3 | – | – | – | – | inhibition in vivo at 0.8 mg/kg [2, 3]: 0%; pH of gastric liquid, treated animals ([2]; 0.8 mg/kg): 2.9
3 | O=C(O)/C=C/C(=O)c1ccc(F)cc1 [Example 3, (E) 4-(4-fluorophenyl)-4-oxo-2-butenoic acid] | ~300 mg/kg | – | – | – | – | 43% | 100% | 2.8 | 4.0 | inhibition in vivo at 0.4 mg/kg [2, 6]: 20%; pH of gastric liquid, treated animals ([2]; 0.4 mg/kg): 3.1
4 | COc1ccc(OC)c(C(=O)/C=C/C(=O)O)c1 [Example 7, (E) 4-(2,5-dimethoxyphenyl)-4oxo-2-butenoic acid] | ~300 mg/kg | – | – | – | – | 93% | 88% | 2.8 | 3.0 | inhibition in vivo at 0.4 mg/kg [2, 6]: 0%; inhibition in vivo at 50 mg/kg [2, 9]: 100%; pH of gastric liquid, treated animals ([2]; 0.4 mg/kg): 3.0; pH of gastric liquid, treated animals ([2]; 50 mg/kg): 4.2
5 | O=C(O)/C=C/C(=O)c1ccc2c(c1)OCO2 [Example 8, (E) 4-(3,4-methylenedioxyphenyl)-4-oxo-2-butenoic acid] | ~400 mg/kg | – | – | – | – | 33% | 60% | 3.2 | 3.3 | inhibition in vivo at 50 mg/kg [2, 9]: 100%; pH of gastric liquid, treated animals ([2]; 50 mg/kg): 5.4
6 | O=C(O)/C=C/C(=O)c1ccc(Cl)cc1 [Example 2, (E) 4-(4-chlorophenyl)-4-oxo-2-butenoic acid] | ~200 mg/kg | – | – | – | – | – | – | – | – | inhibition in vivo at 1 mg/kg ([2]; Rattus norvegicus, 1 mg/kg, read-out: Ulcerations % of protection with respect to controls): 0%; inhibition in vivo at 5 mg/kg ([2]; Rattus norvegicus, 5 mg/kg, read-out: Ulcerations % of protection with respect to controls): 57%; inhibition in vivo at 25 mg/kg ([2]; Rattus norvegicus, 25 mg/kg, read-out: Ulcerations % of protection with respect to controls): 100%; pH of gastric liquid, treated animals ([2]; 1 mg/kg): 3.0; pH of gastric liquid, treated animals ([2]; 5 mg/kg): 3.0; pH of gastric liquid, treated animals ([2]; 25 mg/kg): 5.6
7 | O=C(O)/C=C/C(=O)c1ccccc1[N+](=O)[O-] [Example 5, (E) 4-(2-nitrophenyl)-4-oxo-2-butenoic acid] | ~500 mg/kg | 19% | 100% | 3.3 | 4.3 | – | – | – | – | –
8 | O=C(O)/C=C/C(=O)c1ccc(Cl)c(Cl)c1 [Example 4, (E) 4-(3,4-dichlorophenyl)-4-oxo-2-butenoic acid] | ~500 mg/kg | 14% | 71% | 3.1 | 4.1 | – | – | – | – | –
